Key:
[1] = test system: Cancer cell lines that are resistant to palbociclib and tamoxifen; assay: Geminin/Ki67 cell proliferation assay, sequential CDK4 and 6 inhibitor treatment; format: cell-based; settings: sequential treatment in combination with ET (fulvestrant or tamoxifen)
Experimental: (§1) Resistant breast cancer cells are prepared by treating breast cancer cell lines with amounts of a CDK4 and 6 inhibitor (either abemaciclib or palbociclib) in combination with 4-OH-tamoxifen (tamoxifen) for 120-144 h. The cells are sorted and screened for resistant cells, defined as geminin positive (GEM+), a marker of S/G2/M cell cycle accumulation. To confirm the resistant phenotype, cell lines are treated with tamoxifen plus the CDK4 and 6 inhibitor used to drive resistance (either abemaciclib or palbociclib). Resistant cancer cells generated by the above method are treated with abemaciclib in combination with an endocrine therapy (ET) comprising either fulvestrant or tamoxifen; or with palbociclib in combination with either fulvestrant or tamoxifen. Cell proliferation and viability are evaluated by Geminin/Ki67, annexin V, and colony formation assays. Mechanisms of resistance and the effects of sequential treatment of the CDK4 and 6 inhibitor in combination with either fulvestrant or tamoxifen are characterized by western blot and RNAseq analysis.

[2] = test system: Cancer cell lines that are resistant to palbociclib and tamoxifen; assay: Colony formation assay, sequential CDK4 and 6 inhibitor treatment; format: cell-based; settings: sequential treatment in combination with ET (fulvestrant or tamoxifen)
Experimental: as §1

[3] = test system: Cancer cell lines that are resistant to palbociclib and tamoxifen; assay: Annexin V assay, sequential CDK4 and 6 inhibitor treatment; format: cell-based; settings: sequential treatment in combination with ET (fulvestrant or tamoxifen)
Experimental: as §1

[4] = test system: palbociclib-resistant cells; assay: Western blot analysis after sequential treatment; format: cell-based; settings: in combination with ET
Experimental: as §1

[5] = test system: Cancer cell lines that are resistant to palbociclib and tamoxifen; assay: Characterization of effects of sequential treatment (proliferation, pRb signaling, androgen response); format: cell-based; settings: sequential treatment in combination with ET
Experimental: as §1

[6] = test system: HR+, HER2− advanced or metastatic breast cancer; format: in vivo, human; settings: investigation arm: abemaciclib 150 mg PO BID and fulvestrant 500 mg IM; expected
Experimental: As detailed below, a clinical trial is conducted as a Phase 3, global, multicenter, randomized, double-blind, placebo-controlled study in participants with HR+, HER2− advanced or metastatic breast cancer. The study will enroll adults who experienced disease progression on a CDK4 and 6 inhibitor and an aromatase inhibitor (AI) therapy in the first-line setting (initial therapy for advanced or metastatic breast cancer), or recurrence on or after a CDK4 and 6 inhibitor with endocrine therapy (ET) in the adjuvant setting.
The trial will include approximately 350 participants that will be randomly assigned to one of two intervention arms that include an investigational arm A: abemaciclib and fulvestrant and a control arm B: placebo and fulvestrant. […]
The primary endpoint, PFS by investigator assessment, is defined as the time from randomization until the first occurrence of documented disease progression as determined by investigator assessment per RECIST 1.1, or death from any cause in the absence of documented progressive disease. […]

[7] = test system: HR+, HER2− advanced or metastatic breast cancer; settings: abemaciclib 150 mg BID in combination with fulvestrant; patients; cited from earlier work
[8] = test system: early breast cancer at high risk of recurrence; settings: adjuvant setting; patients with early breast cancer at high risk of recurrence; cited from earlier work
[9] = test system: abemaciclib-resistant cells; assay: Western blot analysis after sequential treatment; format: cell-based; settings: in combination with ET
Experimental: as §1

[10] = test system: abemaciclib-resistant cells; assay: Characterization of effects of sequential treatment (proliferation, pRb signaling, androgen response); format: cell-based; settings: in combination with ET
Experimental: as §1

[11] = test system: cell lines resistant to abemaciclib and tamoxifen; assay: Cell proliferation and viability assays (Geminin/Ki67, annexin V, colony formation), sequential treatment; format: cell-based; settings: sequential treatment in combination with ET
Experimental: as §1

Structure (SMILES) | % GEM+ [1] | Ki67 levels [1] | colony formation ability [2] | apoptosis [3] | FOXMI, a regulator of senescence and apoptosis [4] | cyclin A, a marker of mitosis [4] | androgen response [5] | pRb signaling [5] | proliferation [5] | disease progression [6] | OS benefit compared to fulvestrant/placebo [7] | PFS benefit compared to fulvestrant/placebo [7] | safety profile [7] | distant relapse-free survival (DRFS) [8] | invasive disease-free survival (IDFS) [8] | effects on FOXMI and cyclin A [9] | effects on proliferation, pRb signaling, or androgen response [10] | inhibition effects (% GEM+, colony formation ability, Ki67 levels, apoptosis) [11]
CCN1CCN(Cc2ccc(Nc3ncc(F)c(-c4cc(F)c5nc(C)n(C(C)C)c5c4)n3)nc2)CC1 [abemaciclib, [5-(4-ethyl-piperazin-1-ylmethyl)-pyridin-2-yl]-[5-fluoro-4-(7-fluoro-3-isopropyl-2-methyl-3H-benzoimidazol-5-yl)-pyrimidin-2-yl]-amine] | decreased | decreased | decreased | increased | decrease | decrease | induction | decreased | decrease | delay disease progression | clinically meaningful | clinically meaningful | manageable safety profile | significant improvement | significant improvement |  |  | 
CC(=O)c1c(C)c2cnc(Nc3ccc(N4CCNCC4)cn3)nc2n(C2CCCC2)c1=O [palbociclib, 6-acetyl-8-cyclopentyl-5-methyl-2-{[5-(piperazin-1-yl)pyridine-2-yl]amino}pyrido[2,3,-d]pyrimidin-7 (8H)-one] |  |  |  |  |  |  |  |  |  |  |  |  |  |  |  | do not exhibit similar effects | do not exhibit similar effects | do not show similar inhibition effects

From US20240398832A1, “CDK4 AND 6 INHIBITOR IN COMBINATION WITH FULVESTRANT FOR THE TREATMENT OF HORMONE RECEPTOR-POSITIVE, HUMAN EPIDERMAL GROWTH FACTOR RECEPTOR 2-NEGATIVE ADVANCED OR METASTATIC BREAST CANCER IN PATIENTS PREVIOUSLY TREATED WITH A CDK4 AND 6 INHIBITOR” (Eli Lilly and Company, priority 2021, published 2024)
